Several values for one entry are separate records, joined by “and”; a condition that tells them apart may be missing. Equal entries are not always repeated. Entries after “also recorded” stand apart in the source; their conditions may differ. Where two headings read alike, the source gives them in different places.
Key:
[1] = test system: SARS-CoV-2 (USA-WA1/2020); experiment: Neutral red CPE assay in Vero E6 cells; assay type: cell-based; settings: for EC50: Severe acute respiratory syndrome coronavirus 2, Vero C1008, 72 h, read-out: EC50: 50% effective antiviral concentration
[2] = test system: SARS-CoV-2 (USA-WA1/2020); experiment: microbe, parasite or virus in culture; assay type: cell-based; settings: Severe acute respiratory syndrome coronavirus 2, Caco-2, 72 h, read-out: EC90: Calculated concentration to reduce virus yield by 1 log (90%) (converted)
[3] = Cytotoxicity, neutral red, Caco2 cells; assay type: cell-based; settings: human, read-out: CC50: 50% cytotoxic concentration of compound without virus added
Experimental: Virus yield reduction assay in Caco-2 cells: The virus yield reduction (VYR) assay set up was similar to that described for the neutral red assay excepting Caco2 cells were used. On day 3 post-infection, cell culture supernatant from wells was collected and infectious virus determined by running a standard endpoint dilution CCID50 assay. Compound dilution that reduced virus yield by 1 log10 was calculated. After collection of cell culture supernatant from wells on day 3 post-infection, plates were stained as described in the neutral red assay to determine CC50 in Caco2 cells.

[4] = Cytotoxicity without virus, neutral red, Vero E6 cells; assay type: cell-based; settings: African green monkey; Neutral Red in Vero E6 cells; read-out: CC50: 50% cytotoxic concentration of compound without virus added
Experimental: Neutral red assay in Vero E6 cells: Compound dilutions were added to 96-well plates containing 80-100% confluent Vero E6 cells. Cells were incubated with compound for 1-2 hours and then infected with virus at a low MOI to achieve >80% cytopathic effect (CPE) within 5 days of incubation. On day 3 post-infection, CPE was quantitated by neutral red staining. Briefly cells were stained with neutral red for 2 hours, dye removed, and wells rinsed with PBS. The incorporated dye was extracted in Sorensen citrate buffer/ethanol (50:50) and absorbance measured on a spectrophotometer at 540 nm. Compound dilution that reduced virus CPE by 50% (EC50) was calculated along with cytotoxicity in the absence of virus infection (CC50).

[5] = test system: SARS-CoV-2; settings: MRC5 cells; cited from earlier work
[6] = Genotoxicity / mitotoxicity
[7] = Healthy volunteer Phase 1 study of oral Compound 1; settings: healthy volunteers
[8] = in vivo; settings: female, BALB/c, mouse, 5 mg
[9] = test system: SHC014; experiment: microbe, parasite or virus in culture; assay type: cell-based, bat-derived SARS-like coronavirus; settings: HAE cells
[10] = individual animals; for Plasma Compound 1 Concentration: 5 mg delivered dose, aerosol, single dose
[11] = test system: SARS-CoV-2 strain USA-WA1 2020 (nLuc reporter); experiment: microbe, parasite or virus in culture; assay type: cell-based
[12] = test system: Murine hepatitis virus (MHV) strain MHV-A59 (nLuc reporter); experiment: microbe, parasite or virus in culture; assay type: cell-based; settings: Murine coronavirus
[13] = test system: WIV1; experiment: microbe, parasite or virus in culture; assay type: cell-based, bat-derived SARS-like coronavirus; settings: HAE cells
[14] = Oral GLP toxicology; settings: rats/dogs
[15] = Tolerability of single inhaled aerosol dose in healthy BALB/c mice; assay type: in vivo; settings: 5 mg aerosol single dose; dosing period and 8-hour post-dose period
Experimental: Tolerability and pharmacokinetics (PK) of a single dose of Compound 1 delivered as aerosol via nebulized liquid in a flow-past pie-chamber model to healthy BALB/c mice. Compound 1 and Compound 60 concentrations were evaluated in plasma and lung tissue were determined.
Nine female, 9-11 week old BALB/c mice were housed in 9 individual wedges of the inhalation device described above. The input holes of the remaining 3 wedges were taped off to maximize delivery to the 9 mice. A liquid formulation of 5 mg/mL Compound 1 (pH 6.0) was prepared immediately prior to dosing and dispensed into the compressor chamber. The entire contents (9 mL) of the formulation solution were aerosolized and delivered to the 9 mice over a period of 20-30 min. This method delivered 5 mg Compound 1 to each wedge containing a single mouse over the period of nebulization.
Mice were monitored for adverse clinical signs with special attention given to signs related to eye irritation.

[16] = test system: SARS-CoV-2; experiment: hACE2 transgenic mouse model of SARS-CoV-2 disease; assay type: in vivo, human ACE2 transgenic mouse; settings: 50 mg/kg once per day intraperitoneal, Day 5
[17] = test system: uninfected cells; experiment: Cytotoxicity in uninfected cells, Sigma TOX7 LDH release; assay type: cell-based; settings: any concentration
Experimental: For each assay, percent inhibition was calculated by comparing luciferase activity in cells treated with compound to that in cells treated with vehicle (DMSO) control. Cells were treated with 2.5 μM remdesivir as a control where indicated. Cytotoxicity was measured in uninfected cells in parallel assays using the Sigma TOX7 assay for LDH release.

[18] = Mean Plasma Compound 1 Concentration
[19] = Plasma Compound 1 Concentration
[20] = Severe acute respiratory syndrome-related coronavirus, HAE
[21] = 5 mg Compound 1 aerosol, 1 hr post-dose
[22] = 5 mg Compound 1 aerosol, 3 hr post-dose

For NC(=O)c1cn([C@@H]2O[C@H](CO)[C@@H](O)[C@H]2O)c2ncnc(N)c12 [Sangivamycin, reference compound], the “SI: Selectivity Index (CC50/EC50)” value ([1]; Neutral Red in Vero E6 cells) was 1.9, the EC50 ([1]; Neutral Red in Vero E6 cells, day 3 post-infection) was 0.007 µM and the EC90 [2] was 120 nM. For the same compound, the CC50 at 3 days [3] was 120 nM and the CC50 at 3 days [4] was 10 nM.
For CNc1nc(N)nc2c1ncn2[C@@H]1O[C@H](COP(=O)(N[C@@H](C)C(=O)OC(C)C)Oc2ccccc2)[C@@H](O)[C@@]1(C)F.CNc1nc(N)nc2c1ncn2[C@@H]1O[C@H](COP(=O)(N[C@@H](C)C(=O)OC(C)C)Oc2ccccc2)[C@@H](O)[C@@]1(C)F.O=S(=O)(O)O (stereo partly shown) [AT-527], the “antiviral activity against SARS-CoV-2” value [5] is given as “lack of antiviral activity against SARS-CoV-2”.
With Cc1nc(N)c2c(C(N)=O)cn([C@@H]3O[C@H](CO)[C@@H](O)[C@H]3O)c2n1 [Compound 1, 4-amino-7-((2R,3R,4S,5R)-3,4-dihydroxy-5-(hydroxymethyl)tetrahydrofuran-2-yl)-2-methyl-7H-pyrrolo[2,3-d]pyrimidine-5-carboxamide] the genotoxicity / mitotoxicity [6] was “not genotoxic or mitotoxic”, the “SI: Selectivity Index (CC50/EC50)” value ([1]; Neutral Red in Vero E6 cells) was >1.8 and the EC50 [1] was 56 µM. For the same compound, the generally well-tolerated dose [7] was “up to 2400 mg”, the EC90 [2] was 2100 nM and the Kp [8] was ~20. The Kp at 8 h [8] was ~12, the concentration at 1 h [8, 18] was 41.8 ng/mL and the concentration at 3 h [8, 18] was 18 ng/mL. For the same compound, the concentration at 8 h [8, 18] was 13.3 ng/mL, the concentration at 1 h [8, 19] was 32.5 ng/mL and the concentration at 3 h [8, 19] was 18.5 ng/mL. For the same compound, the concentration at 8 h [8, 19] was 11.9 ng/mL, the EC50 [9] was 980 nM and the EC50 [9, 20] was ~1000 nM. For the same compound, the “Lung tissue Compound 1 concentration, Middle lobe” value [10, 21] was 1323 pmol/g and 988 pmol/g and 1061 pmol/g, the “Lung tissue Compound 1 concentration, PC lobe” value [10, 21] was 986 pmol/g and 673 pmol/g and 430 pmol/g and the “Lung tissue Compound 1 concentration, Superior lobe” value [10, 21] was 1867 pmol/g and 1219 pmol/g and 1212 pmol/g. The “Lung tissue Compound 1 concentration, Inferior lobe” value [10, 22] was 209 pmol/g and 93 pmol/g and 110 pmol/g, the “Lung tissue Compound 1 concentration, Left lobe” value [10, 22] was 106 pmol/g and 116 pmol/g and 140 pmol/g and the “Lung tissue Compound 1 concentration, Superior lobe” value [10, 22] was 398 pmol/g and 167 pmol/g and 305 pmol/g. The “Lung tissue Compound 1 concentration, Middle lobe” value ([10]; 5 mg Compound 1 aerosol, 8 hr post-dose) was 73 pmol/g and 137 pmol/g and 99 pmol/g, the “Plasma Compound 1 Concentration” value ([10]; 1 hr post-dose) was 39.1 ng/mL and 53.7 ng/mL and the “Plasma Compound 1 Concentration” value ([10]; 3 hr post-dose) was 20.8 ng/mL and 14.8 ng/mL. For the same compound, the “Plasma Compound 1 Concentration” value ([10]; 8 hr post-dose) was 15.4 ng/mL and 12.6 ng/mL, the EC50 ([11]; HAE cells donor code yellow, 8 point dose-response curve, read-out: EC50) was 940 nM and the EC50 ([11]; Severe acute respiratory syndrome coronavirus 2, Epithelial cell, read-out: average EC50, SARS-CoV-2 replication) was 900 nM. It also gave an EC50 ([11]; Severe acute respiratory syndrome coronavirus 2, HAE, HAE cells donor code blue, 5 point dose-response curve, read-out: EC50) of 550 nM, an EC50 ([11]; Severe acute respiratory syndrome coronavirus 2, HAE, HAE cells donor code purple, 5 point dose-response curve, read-out: EC50) of 380 nM and an EC50 ([11]; Severe acute respiratory syndrome coronavirus 2, HAE, HAE cells donor code yellow, 4 point dose-response curve, read-out: EC50) of 310 nM. For the same compound, the EC50 ([11]; Severe acute respiratory syndrome coronavirus 2, HAE, HAE cells donor code yellow, 5 point dose-response curve, read-out: EC50) was 160 nM, the EC50 ([11]; Severe acute respiratory syndrome coronavirus 2, HAE, HAE cells donor code yellow, 7 point dose-response curve, read-out: EC50) was 350 nM and the EC50 ([11]; Severe acute respiratory syndrome coronavirus 2, HAE, HAE cells donor code yellow, 8 point dose-response curve, read-out: EC50) was 1100 nM. For the same compound, the EC50 ([11]; Severe acute respiratory syndrome coronavirus 2, HAE, mean of the HAE cell determinations, read-out: Mean SARS-CoV-2 EC50) was 540 nM, the EC50 ([11]; mean of the HAE cell determinations, read-out: Mean SARS-CoV-2 EC50) was 540 nM and the EC50 [12] was 380 nM. The EC50 [13] was 1010 nM, the EC50 [13, 20] was ~1000 nM and the toxicology profile [14] was “favorable toxicology profile”. For the same compound, the “clinical signs of irritation or intolerability” value [15] was “No clinical signs of irritation or intolerability”, the CC50 at 3 days [3] was > 100000 nM and the CC50 at 3 days [4] was > 100000 nM. For the same compound, the “average Cq, virus genome in lungs (qPCR)” value ([16]; started 4-6 h after challenge, vehicle Cq 23) was 22, the “effect on virus genome levels in lungs / efficacy” value [16] was “did not alter the virus genome levels detected in lungs; also recorded: not effective at inhibiting SARS-CoV-2” and the “Cq of one male mouse with lower than expected virus genome loads” value ([16]; likely failure of challenge or RNA recovery) was 38. The “Effect on cell viability” value [17] was “No effect on cell viability was seen at any concentration”.

Reference: patent US20240207299A1, “PYRROLOPYRIMIDINE NUCLEOSIDES FOR TREATING OR PREVENTING A SARS-COV-2 INFECTION” (Chimerix, Inc., priority 2021, published 2024)
